From ChEMBL document CHEMBL3271946, “Synthesis and adrenoreceptor blocking action of aziridinium ions derived from phenoxybenzamine and dibenamine” (J Med Chem, 1976)
Calls of active or inactive are those of the source. The rule behind the calls is not given here.

Assays:
[1] = Half life in krebs solution assessed as hydrolysis at 0.003 M at 37 degC; type: physicochemical
Vas deferens = assay: Blockade of serotonin-induced response in rat vas deferens after 3 mins; type: functional, tissue-based
[2] = biological target: T1, Adrenergic receptor alpha (Rattus norvegicus) (UniProt P15823+P23944+P43140+P22086+P19328+P22909); assay: Antagonist activity at alpha-adrenergic receptor in blockade of norepinephrine-induced response in rat vas deferens after 3 mins; type: tissue-based
[3] = biological target: T1, Adrenergic receptor alpha (Rattus norvegicus); assay: Antagonist activity at alpha-adrenergic receptor in blockade of norepinephrine-induced response in rat vas deferens after 3 mins measured after compound washout; type: tissue-based
[4] = Half life in 0.025 M NaHCo3 solution assessed as compound cyclization at 5x10'-4 M; type: physicochemical
[5] = Half life in 80% aqueous Me2CO solution assessed as compound cyclization at 5x10'-4 M; type: physicochemical; conditions: 80% aqueous acetone (Me2CO) solution

Row | Compound | half-life at 0.003 M [1] | inhibition (Vas deferens) | inhibition [2] | inhibition [3] | half-life at 500 µM [4] | half-life at 500 µM [5]
1 | CC(COc1ccccc1)[N+]1(Cc2ccccc2)CC1.[O-][Cl+3]([O-])([O-])[O-] (stereo not drawn) | 19 min | Active | Active | Active | – | –
2 | CC(COc1ccccc1)N(CCCl)Cc1ccccc1.Cl (stereo not drawn) [PHENOXYBENZAMINE HYDROCHLORIDE] | – | Active | Active | Active | 2.3 min | 0.61 min
3 | Cl.ClCCN(Cc1ccccc1)Cc1ccccc1 | – | Active | Active | Active | 6.1 min | 1.6 min
4 | [O-][Cl+3]([O-])([O-])[O-].c1ccc(C[N+]2(Cc3ccccc3)CC2)cc1 | 14 min | Active | Active | Active | – | –
